Consider one compound from US20110020801A1, “Carboxylesterase-1 Polymorphisms and Methods of Use Therefor” (priority 2007, published 2011).

Where two headings read alike, the source gives them in different places.

Data set [1] is described as follows: Pharmacokinetic study of orally administered racemic MPH in normal volunteers. To be noted: human, plasma. Format: in vivo, human. As for the experimental part:
Analysis of Pharmacokinetic, Hemodynamic, and Statistical Data. Standard pharmacokinetic analyses were applied to the MPH data using WinNonLin software (Pharsight, Mountainview, Calif.) and are described in a previous publication.^10 The AUC, Cmax, and t1/2 were analyzed using the Extreme Studentized Deviate (ESD) single-outlier procedure^12 to determine whether the parameter measurements for the slow metabolizer constituted true statistical outliers. For each parameter, the ESD procedure confirmed the measurement as an outlier at the p<0.01 level. Because this procedure is known to be conservative, the data from the aberrant metabolizer were reassessed using a similar procedure with respect to the normal participants only.

Another data set has as its target T1, p.Asp260fs CES1 (Homo sapiens, UniProt P23141).
T1 construct: a frameshift mutation that alters residues 260-299 and causes early truncation at a premature stop codon; expressed in transfected cells
T1 sequence (P23141 with tags, fused parts or gaps): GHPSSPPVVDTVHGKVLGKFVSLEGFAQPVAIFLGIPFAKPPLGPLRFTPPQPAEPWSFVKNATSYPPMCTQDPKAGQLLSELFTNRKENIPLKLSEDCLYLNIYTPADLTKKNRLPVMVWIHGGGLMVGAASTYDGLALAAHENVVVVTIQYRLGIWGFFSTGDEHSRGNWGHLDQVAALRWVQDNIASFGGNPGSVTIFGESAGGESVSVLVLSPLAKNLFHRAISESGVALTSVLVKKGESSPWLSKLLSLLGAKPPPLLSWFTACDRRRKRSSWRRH
In words: MPH hydrolysis to ritalinic acid by S9 of cells expressing p.Asp260fs CES1 (HPLC). Format: biochemical. To be noted: S9 500 μg/ml, even at very high S9 concentration (2 mg/ml); 37° C., 2 h. From the text: (§1) The desired plasmid was designed such that the recombinant CES1 would be expressed in mammalian cells with a V5-His tag to facilitate detection and purification. Additionally, another plasmid was generated by inserting a stop codon after CES1A1 gene to yield the constructs expressing CES1 without V5-His tag. […] Thus, only untagged CES1 and its associated mutants were used in the enzymatic hydrolysis study. Two constructs of CES1 mutations, p.Gly143Glu and p.Asp260fs, were generated using a site-directed mutagenesis assay. All constructs were subjected to DNA sequencing analysis to confirm that the desired plasmids were obtained. The identified CES1A1 plasmids (WT, p.Gly143Glu, and p.Asp260fs) were co-transfected with pOG44 plasmid at a ratio of 1:10 into Flp-In™-293 cells using […] (Invitrogen, Carlsbad, Calif.). Additionally, the self-ligated pcDNA5/FRT/V5-His-TOPO® vector was included as a vector control. Twenty-four hours after transfection, cells were washed with PBS and fresh complete medium (Dulbecco's modified Eagle's medium containing 10% fetal bovine serum) was added. […]
(§2) After attaining approximately 95% confluence, cells were rinsed and harvested in PBS containing 10 mM HEPES (pH 7.4). […] The protein concentration was determined using a Pierce BCA assay kit (Rockford, Ill.).
(§3) For the study of MPH hydrolysis, the reaction was conducted in 1.5 mL eppendorf tubes with a final S9 concentration of 0.5 mg/mL at a total volume of 100 μL. […] Concentrations of the primary phase I MPH metabolite produced via hydrolysis, ritalinic acid (RA), was determined utilizing an established HPLC method described below.
(§4) Thus, following the enzymatic assay, the values determined for spontaneous PNP and RA hydrolysis were subtracted from the total PNP and RA production. […] All collected data were fit to the Michaelis-Menten equation, and kinetic parameters were calculated using nonlinear regression analysis with Graphpad Prism software (Graphpad Software Inc., San Diego, Calif.) […]

In another data set the target is T2, p.Gly143Glu CES1 (Homo sapiens, UniProt P23141, G143E).
T2 construct: inserting a stop codon after CES1A1 gene to yield the constructs expressing CES1 without V5-His tag; expressed in transfected cells
T2 sequence (P23141 18-567 G143E/Y526T): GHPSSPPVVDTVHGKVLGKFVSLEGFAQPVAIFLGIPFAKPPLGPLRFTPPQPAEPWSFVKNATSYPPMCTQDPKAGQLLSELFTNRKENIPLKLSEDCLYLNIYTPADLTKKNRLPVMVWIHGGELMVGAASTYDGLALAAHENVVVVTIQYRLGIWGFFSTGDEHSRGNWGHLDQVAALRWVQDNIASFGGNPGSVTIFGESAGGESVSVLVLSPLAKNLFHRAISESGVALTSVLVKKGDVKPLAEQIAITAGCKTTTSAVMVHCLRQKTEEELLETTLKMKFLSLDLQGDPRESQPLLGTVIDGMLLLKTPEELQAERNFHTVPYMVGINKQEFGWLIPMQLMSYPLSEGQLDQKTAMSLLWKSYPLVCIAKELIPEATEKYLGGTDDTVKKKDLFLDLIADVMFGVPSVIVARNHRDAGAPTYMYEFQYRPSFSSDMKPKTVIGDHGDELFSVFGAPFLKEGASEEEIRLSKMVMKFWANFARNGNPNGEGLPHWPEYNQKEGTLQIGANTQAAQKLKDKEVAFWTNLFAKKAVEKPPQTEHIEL
Put plainly: MPH hydrolysis to ritalinic acid by S9 of cells expressing p.Gly143Glu CES1 (HPLC). The following applies: S9 500 μg/ml, even at very high S9 concentration (2 mg/ml); 37° C., 2 h. The format is biochemical.
Excerpt: as §1, §2, §3, §4

Setting [2] is: mean ±SD of all other subjects, single oral 0.3 mg/kg racemic MPH.

In general, AUC refers to concentration integrated over time. The term Cmax denotes the maximum level reached in the sampled fluid or tissue. By Tmax is commonly meant the time at which the peak concentration occurs. The AUC(0-inf) is total exposure, with the tail of the curve extrapolated. Low values mean less exposure, high ones more exposure. Turning to `COC(=O)[C@H](c1ccccc1)[C@H]1CCCCN1` [d-MPH, methylphenidate], the AUC in data set [1] (oral, 0.3 mg/kg, Table 1, 19 study peers, read-out: AUC, Mean (±SD)) came out at 0.0786 µg·h/mL; in data set [1] (male, oral, 0.3 mg/kg, Table 1, aberrant metabolizer, read-out: AUC, Outlier), 0.209 µg·h/mL. Besides, the Cmax in data set [1] (oral, 0.3 mg/kg, Table 1, 19 study peers, read-out: Cmax, Mean (±SD)) stood at 0.0138 µg/mL; in data set [1] (mean ±SD of all other subjects, single oral 0.3 mg/kg racemic MPH, read-out: Cmax) it was 0.015 ± 0.003 µg/mL; in data set [1] (male, oral, 0.3 mg/kg, Table 1, aberrant metabolizer, read-out: Cmax, Outlier), 0.0367 µg/mL; in data set [1] (male, slow metabolizer, single oral 0.3 mg/kg racemic MPH, read-out: Cmax), 0.037 µg/mL. For the same compound, the half-life in data set [1] (oral, 0.3 mg/kg, Table 1, 19 study peers, read-out: t1/2, Mean (±SD) (converted)) was 3 h; in data set [1] (mean ±SD of all other subjects, single oral 0.3 mg/kg racemic MPH, read-out: t1/2 (converted)), 2.8 ± 0.4 h; in data set [1] (male, oral, 0.3 mg/kg, Table 1, aberrant metabolizer, read-out: t1/2, Outlier (converted)), 5.4 h; in data set [1] (male, slow metabolizer, single oral 0.3 mg/kg racemic MPH, read-out: t1/2 (converted)), 5.4 h. In addition, the Tmax in data set [1] (setting [2]) turned out to be 2.3 ± 0.8 h; in data set [1] (male, slow metabolizer, single oral 0.3 mg/kg racemic MPH), 3 h. Also, the AUC(0-inf) stood at 0.083 ± 0.022 µg·h/mL in data set [1] (setting [2]); 0.209 µg·h/mL in data set [1] (male, slow metabolizer (heterozygous for p.Gly143Glu and p.Asp260fs), single oral 0.3 mg/kg racemic MPH). The “catalytic activity towards MPH hydrolysis” value at p.Asp260fs CES1 and on p.Gly143Glu CES1 was “failed to show any hydrolytic activity” in each case.
